Patent publication US20170252433A1, “PSMA-RELATED THERAPIES” (Memorial Sloan Kettering Cancer Center, priority 2014, published 2017)

Tests used:
[1] = test system: LNCaP, LNCaP-KD, PC3-PSMA and PC3-wt cells; test: In vitro chemotherapy, cell viability (Alamar blue); conditions: 200 nM, overnight
Method: Cells were seeded in a 96-well format (2,500 cells per well), and grown for 48 h. They were then treated with the following drugs at a final concentration of 200 nM: Doxorubicin, Taxol, AZD6244, BEZ235, Lapatinib, and Velcade (all purchased from Selleck Chemicals, Houston, Tex.). For combination therapy, cells were treated with 2-PMPA (5 μM final concentration). After overnight incubation in the presence of the drugs, cell viability was determined with the Alamar blue method according to the supplier's guidelines (Life Technologies, Carlsbad, Calif.)
Given that PSMA affects the phosphorylation status of multiple targets, it was investigated whether inhibition of PSMA can counteract resistance to various chemotherapeutics used in the clinic or under clinical trials. LNCaP and PCS3-PSMA cells were seeded at a density of 2,500 cells per well in a 96-well format, and after 48 hours growth the cells were treated with the drugs (Doxorubicin (Adriamycin; DNA intercalator), Taxol (Paclitaxel; microtubule stabilizer), AZD6244 (Selumetinib; MEK1 & ERK1/2 inhibitor), BEZ235 (Dactolisib; PI3K & mTOR inhibitor), Lapatinib (EGFR and ErbB2 inhibitor), or Velcade (Bortezomib; 20S proteasome inhibitor), 200 nM final concentration in 1×PBS) or with the drugs (200 nM final concentration) and 2-PMPA (5 μM final concentration). After overnight incubation, cell viability was assessed fluorimetrically with the Alamar blue method (Invitrogen), according to the supplier's protocol.

[2] = test system: PSMA-expressing prostate cancer cells (LNCaP-wt, PC3-hPSMA) and PC3-wt; test: Cytoplasmic calcium quantification (Fluo4 assay); type: cell-based, human
Method: Cells were seeded at a density of 10,000 per well on a 96-well plate and grown overnight. Loading of the calcium-sensing dye Fluo4 (Life Technologies, Calrsbad, Calif.) was performed according to the manufacturer's instructions. Where indicated the cells were treated with thapsigargin (1 μM, Tocris, Minneapolis, Minn.), L-Quisqualic acid (110 μM, Tocris), 3,5-DHPG (0.67 mM, Tocris), L-AP3 (125 μM, Tocris), U73122 (50 μM, Tocris), and 2-PMPA (100 μM, Tocris) immediately before measuring calcium levels, with a SpectraMax M5 plate reader (Molecular Devices, Sunnyvale, Calif.).
The effect of PSMA expression on calcium homeostasis in prostate cancer cell lines was evaluated using the fluorimetric Fluo4 assay kit (Invitrogen), according to the supplier's instructions. The plate was excited at 490 nm, and fluorescence emission was monitored at 520 nm with the SpectraMax M5 plate reader (Molecular Devices). […] To examine calcium accumulation in the cytoplasm, the cells were treated with thapsigargin (1 μM, Tocris) immediately prior to taking measurements with the plate reader. […] Furthermore, we investigated whether PSMA facilitates calcium signaling via the mGluR Group I receptors through its enzymatic activity. The cells were treated with either L-Quisqualic acid (110 μM; mGluR I agonist, Tocris), L-AP3 (125 μM; mGluR I antagonist, Tocris) or a PSMA inhibitor (100 μM, Tocris), immediately prior to taking calcium measurements.

CC(C)C[C@H](NC(=O)[C@H](Cc1ccccc1)NC(=O)c1cnccn1)B(O)O [Velcade, Bortezomib]
sensitivity of PC3-wt cells compared with PC3-PSMA [1]: more sensitive

N[C@@H](CP(=O)(O)O)C(=O)O [L-AP3]
cytoplasmic calcium levels ([2]; PSMA-expressing cells, PSMA inhibitor 100 μM, L-AP3 125 μM, FIG. 1c): lowered calcium levels

COc1ccc2c(c1)CC[C@@H]1[C@@H]2CC[C@]2(C)[C@@H](NCCCCCCN3C(=O)C=CC3=O)CC[C@@H]12 [U73122]
cytoplasmic calcium levels ([2]; PSMA inhibition compared with Phospholipase C inhibitor U73122 50 μM, FIG. 1d): reduction in calcium levels

C/C=C(/C)C(=O)O[C@H]1C(C)=C2[C@H]([C@@H]1OC(=O)CCCCCCC)[C@@](C)(OC(C)=O)C[C@H](OC(=O)CCC)[C@@]1(O)[C@H]2OC(=O)[C@@]1(C)O [thapsigargin]
calcium accumulation in the cytoplasm ([2]; thapsigargin 1 μM, PSMA-expressing cells versus PC3-wt, FIG. 1b): significant buildup of calcium in their cytoplasm
